Test [1] relates to IL-6. Briefly: Inhibitory activity on IL-6 production from LPS-stimulated human PBMC (ELISA). It counts as cell-based. The conditions noted are these: 24 h. On the procedure: (§1) Inhibitory activity on cytokine production from human PBMC (peripheral blood mononuclear cell)
(§2) PBMC fractions were isolated from human blood using a mono-poly resolving medium. The cells (PBMC) were cultured in 5% FCS (fetal calf serum)/RPMI1640 medium. Thereafter, the test compound was added to the final concentration of 0.001-10 µM, and LPS (lipopolysaccharide) was added to the final concentration of 10 µg/ml. After incubatioin for 24 hours, the supernatant was separated and freeze stocked at -80°C.
(§3) On the day of experiment, the supernatant was thawed and the production amount of cytokine was measured by ELISA. IL-6 was assayed using [(h)IL-6] human, ELISA system (Amersham); TNF-α was assayed using [(h)TNF-α] human, ELISA system (Amersham); GM-CSF was assayed using human GM-CSF immunoassay (R&D systems); and IL-8 was assayed using human IL-8 immunoassay (R&D systems). The determination method followed the method of each kit. The results are expressed in IC50.
(ELISA stands for enzyme-linked immunosorbent assay.)

The next test relates to TNF-α. Briefly: Inhibitory activity on TNF-α production from LPS-stimulated human PBMC (ELISA). It counts as cell-based. The note with it: Homo sapiens, PBMC, 24 h. The protocol: as §1, §2, §3
In test [2] the test system is IL-6. Briefly: Inhibitory activity on in vivo IL-6 production by LPS stimulation. The conditions noted are these: male ICR mice, LPS stimulation i.v., test compound 10 mg/kg p.o. at the same time, blood two hours later, relative to 0.5% CMC-Na group; for inhibition in vivo at 10 mg/kg: Mus musculus, po, 2 h, read-out: Inhibtion (%) of plasma IL-6 production (10 mg/kg, p.o.). On the procedure:
Inhibitory activity on in vivo IL-6 production by LPS stimulation
LFS (0.3 mg/kg) was intravenously administered to male ICR mice (6-week-old) fasted for 24 hours. At the same time, the test compound suspended in 0.5% CMC-Na ( carboxymethylcellulose sodium) was orally administered at the dose of 10 mg/kg.
Two hours later, blood was taken from eyegrounds. The blood was centrifuged, and the plasma fraction was diluted and quantitatively assayed for IL-6 in blood by ELISA (Endogen EM-IL6). The inhibitory percentage of the group administered with the test compound was expressed relative to the amount of IL-6 in blood of the cup administered with 0.5% CMC-Na.

The mark [3] stands for this setting: human PBMC, LPS 10 µg/ml, incubation 24 hours, supernatant ELISA, read-out: IL-6 IC50.
The mark [4] stands for this setting: human PBMC, LPS 10 µg/ml, incubation 24 hours, supernatant ELISA, read-out: TNF-α IC50.
The mark [5] stands for this setting: read-out: IL-6 IC50 (µM), human PBMC, LPS 10 µg/ml, incubation 24 hours, supernatant ELISA.
Where [6] appears, read: read-out: TNF-α IC50 (µM), human PBMC, LPS 10 µg/ml, incubation 24 hours, supernatant ELISA.

Molecules are shown by their SMILES. Where two headings read alike, the source gives them in different places.

For `Cc1sc2c(c1C)C(c1ccc(Cl)cc1)=NN(Cc1cc[n+]([O-])cc1)c1nnc(C)n1-2` [Example 3, 4-[4-(4-Chlorophenyl)-2,3,9-trimethyl-6H-1-thia-5,6,7,8,9a-pentaazacyclopent[e]azulen-6-ylmethyl]-pyridine-1-oxide], the IC50 with IL-6 [1] (setting [3]) worked out at 0.2 µM; in the test with TNF-α (setting [4]) it was 0.05 µM. On to `CCc1cc2c(s1)-n1c(C)nnc1N(Cc1cc[n+]([O-])cc1)N=C2c1ccc(Cl)cc1` [Example 4, 4-[4-(4-Chlorophenyl)-2-ethyl-9-methyl-6H-1-thia-5,6,7,8,9a-pentaazacyclopent[e]azulen-6-ylmethyl]-pyridine-1-oxide], for which the IC50 in the test with IL-6 [1] (setting [3]) came out at 2 µM. With `COC(=O)c1ccc(C2=NN(Cc3ccc(C#N)cc3)c3nnc(C)n3-c3ccccc32)cc1` [Example 7, Methyl 4-[4-(4-cyanobenzyl)-1-methyl-4H-2,3,4,5,10b-pentaazabenz[e]azulen-6-yl]benzoate], the IC50 in the test on IL-6 [1] (setting [3]) turned out to be 0.23 µM; with TNF-α (setting [4]), 0.5 µM. The matching figures for `Cc1nnc2n1-c1ccccc1C(c1ccc(NC(=O)OC(C)(C)C)cc1)=NN2Cc1ccc(C#N)cc1` [Example 13, tert-Butyl 4-[4-(4-cyanobenzyl)-1-methyl-4H-2,3,4,5,10b-pentaazabenz[e]azulen-6-yl]phenylcarbamate]: 0.02 µM and below 0.01 µM. Take `Cc1nnc2n1-c1ccccc1C(c1ccc(NC(=O)OC(C)(C)C)cc1)=NN2Cc1ccc([N+](=O)[O-])cc1` [Example 14, tert-Butyl 4-[1 methyl-4-(4-nitrobenzyl)-4H-2,3,4,5,10b-pentaazabenz[e]azulen-6-yl]phenylcarbamate]: the results for the IC50 in the test on IL-6 [1] (setting [3]) and in the test on TNF-α (setting [4]) were 0.02 µM and below 0.01 µM, respectively.

In the case of `Cc1cc2c(s1)-n1c(C)nnc1N(Cc1ccc(-c3nnn(C)n3)cc1)N=C2c1ccccc1` [Example 17, 2,9-dimethyl-4-phenyl-6-[4-(2-methyl-2H-tetrazol-5-yl)benzyl]-6H-5,6,7,8,9a-pentaazathieno[2,3-e]azulene], the IC50 with TNF-α (setting [4]) worked out at 0.12 µM. Consider `Cc1ccc(CN2N=C(c3ccc(Cl)cc3)c3ccccc3-n3c(C)nnc32)cc1` [Synthetic Example 54, 6-(4-Chlorophenyl)-1-methyl-4-(4-methylbenzyl)-4H-2,3,4,5,10b-pentaazabenz[e]azulene], for which the inhibition in vivo at 10 mg/kg in the test with IL-6 [2] is 56%. On the same count and under the same terms, the figure for `Cc1nnc2n1-c1ccccc1C(c1ccc(Cl)cc1)=NN2Cc1ccncc1` [Synthetic Example 86, 6-(4-Chlorophenyl)-1-methyl-4-(pyridin-4-ylmethyl)-4H-2,3,4,5,10b-pentaazabenz[e]azulene] is 89%. Consider `Cc1nnc2n1-c1ccccc1C(c1ccccc1)=NN2Cc1ccncc1` [Synthetic Example 95, 1-Methyl-6-phenyl-4-(pyridin-4-ylmethyl)-4H-2,3,4,5,10b-pentaazabenz[e]azulene], for which the inhibition in vivo at 10 mg/kg with IL-6 [2] was found to be 78%. Same read-out and setting: the figure for `Cc1ccc2c(c1)-n1c(C)nnc1N(Cc1ccncc1)N=C2c1ccccc1` [Synthetic Example 97, 1,9-Dimethyl-6-phenyl-4-(pyridin-4-ylmethyl)-4H-2,3,4,5,10b-pentaazabenz[e]azulene] is 98%. In the case of `Cc1nnc2n1-c1ccc([N+](=O)[O-])cc1C(c1ccccc1)=NN2Cc1ccncc1` [Synthetic Example 102, 1-Methyl-8-nitro-6-phenyl-4-(pyridin-4-ymethyl)-4H-2,3,4,5,10b-pentaazabenz[e]azulene], in the test with IL-6 [2], the “Inhibtion (%) of plasma IL-6 production (10 mg/kg, p.o.)” value is 78%. On to `COc1ccc(CN2N=C(c3ccc(OC)cc3)c3c(sc(C)c3C)-n3c(C)nnc32)cc1` [compound 18], for which the IC50 is 0.008 µM in the test with IL-6 [1] (setting [5]) and below 0.01 µM in the test on TNF-α (setting [6]).

As for `Cc1sc2c(c1C)C(c1ccccc1Cl)=NN(Cc1ccncc1)c1nnc(C)n1-2` [compound 20], the IC50 worked out at 0.8 µM in the test with IL-6 [1] (setting [5]) and 0.06 µM in the test with TNF-α (setting [6]). For `Cc1nnc2n1-c1ccccc1C(c1ccc(Cl)cc1)=NN2Cc1ccc(C#N)cc1` [compound 39] the same measures were below 0.01 µM and below 0.01 µM. As to `Cc1ccc(CN2N=C(c3ccc(Cl)cc3)c3ccccc3-n3c(C)nnc32)cc1` [compound 54], the IC50 with IL-6 [1] (setting [5]) worked out at 0.01 µM; in the test on TNF-α (setting [6]), 0.02 µM. For `Cc1nnc2n1-c1ccccc1C(c1ccc(Cl)cc1)=NN2Cc1ccncc1` [compound 86] the same measures were 0.08 µM and 0.01 µM. For `Cc1nnc2n1-c1ccccc1C(c1ccccc1)=NN2Cc1ccncc1` [compound 95] the same measures were 0.34 µM and 0.03 µM. As for `Cc1ccc2c(c1)-n1c(C)nnc1N(Cc1ccncc1)N=C2c1ccccc1` [compound 97], the IC50 in the test on IL-6 [1] (setting [5]) came to 0.22 µM; with TNF-α (setting [6]), 0.007 µM. For `Cc1nnc2n1-c1ccc([N+](=O)[O-])cc1C(c1ccccc1)=NN2Cc1ccncc1` [compound 102] the same measures were 1.15 µM and 0.05 µM. The matching figures for `Cc1ccc(C2=NN(Cc3ccncc3)c3nnc(C)n3-c3ccccc32)cc1` [compound 103]: 0.11 µM and 0.001 µM. With `Cc1ccc2c(c1)-n1c(C)nnc1N(Cc1ccc(C#N)cc1)N=C2c1ccc(Cl)cc1` [compound 108], the IC50 in the test on IL-6 [1] (setting [5]) and in the test on TNF-α (setting [6]) was below 0.01 µM throughout.

On to `Cc1nnc2n1-c1ccccc1C(c1ccc(Br)cc1)=NN2Cc1ccc(Br)cc1` [compound 109], for which the IC50 is below 0.01 µM with IL-6 [1] (setting [5]) and 0.07 µM with TNF-α (setting [6]).

In the case of `Cc1nnc2n1-c1ccccc1C(c1ccccc1)=NN2Cc1ccc(C#N)cc1` [compound 111], the IC50 in the test on IL-6 [1] (setting [5]) was 0.4 µM; with TNF-α (setting [6]), 0.07 µM. The matching figures for `Cc1sc2c(c1C)C(c1ccc(Cl)cc1)=NN(Cc1ccncc1)c1nnc(C)n1-2` [compound 114]: 0.01 µM and below 0.01 µM.

For the molecule `Cc1sc2c(c1C)C(c1ccc(Cl)cc1)=NN(Cc1ccc(C#N)cc1)c1nnc(C)n1-2` [compound 115], the IC50 in the test with IL-6 [1] (setting [5]) amounted to 0.06 µM; with TNF-α (setting [6]), 0.01 µM. As to `CCc1cc2c(s1)-n1c(C)nnc1N(Cc1ccc(C#N)cc1)N=C2c1ccc(Cl)cc1` [compound 119], the IC50 in the test on IL-6 [1] (setting [5]) and in the test with TNF-α (setting [6]) was below 0.01 µM in each case.

`Cc1cc2c(s1)-n1c(C)nnc1N(Cc1ccncc1)N=C2c1ccccc1` [compound 121]: the IC50 in the test with IL-6 [1] (setting [5]) was 0.04 µM; in the test with TNF-α (setting [6]) it was below 0.01 µM.

Consider `Cc1cc2c(s1)-n1c(C)nnc1N(Cc1ccc(C#N)cc1)N=C2c1ccccc1` [compound 122], for which the IC50 in the test on IL-6 [1] (setting [5]) and with TNF-α (setting [6]) was below 0.01 µM in each case.

As for `Cc1sc2c(c1C)C(c1ccccc1)=NN(Cc1ccncc1)c1nnc(C)n1-2` [compound 125], the results for the IC50 in the test with IL-6 [1] (setting [5]) and with TNF-α (setting [6]) were 0.02 µM and below 0.01 µM, respectively.

In the case of `CCc1cc2c(s1)-n1c(C)nnc1N(Cc1ccncc1)N=C2c1ccccc1` [compound 127], the values for the IC50 with IL-6 [1] (setting [5]) and in the test with TNF-α (setting [6]) were 0.08 µM and below 0.01 µM, respectively.

For `COc1ccc(C2=NN(Cc3ccncc3)c3nnc(C)n3-c3sc(C)c(C)c32)cc1` [compound 129], the values for the IC50 in the test on IL-6 [1] (setting [5]) and in the test on TNF-α (setting [6]) were 0.06 µM and 0.014 µM, respectively. The matching figures for `Cc1nnc2n1-c1ccccc1C(c1ccc(Cl)cc1)=NC2CC(=O)Nc1ccccc1` (stereo not drawn) [compound 195]: 3.4 µM and 0.6 µM. As to `COc1ccc(OC)c(N2C(=O)NC3(N=C(c4ccc(Cl)cc4)c4ccccc4-n4c(C)nnc43)C2=O)c1` (stereo not drawn) [compound 196], the IC50 with IL-6 [1] (setting [5]) turned out to be 2.5 µM; in the test with TNF-α (setting [6]), 0.09 µM. For `Cc1nnc2n1-c1ccccc1C(c1ccc(Cl)cc1)=NC21NC(=O)N(c2ccccc2)C1=O` (stereo not drawn) [compound 197] the same measures were above 10 µM and 0.3 µM. In the case of `CCOC(=O)C1(NC(=O)Nc2cc(OC)ccc2OC)N=C(c2ccc(Cl)cc2)c2ccccc2-n2c(C)nnc21` (stereo not drawn) [compound 199], the IC50 came out at 1.6 µM with IL-6 [1] (setting [5]) and 0.01 µM with TNF-α (setting [6]). For `Cc1nnc2n1-c1ccccc1C(c1ccc(Cl)cc1)=NC2NC(=O)NC1CCCCC1` (stereo not drawn) [compound 203] the same measures were 5.7 µM and 0.2 µM. Turning to `COc1ccc(OC)c(NC(=O)NC2N=C(c3ccc(Cl)cc3)c3ccccc3-n3c(C)nnc32)c1` (stereo not drawn) [compound 204], the IC50 in the test on IL-6 [1] (setting [5]) was above 10 µM; in the test on TNF-α (setting [6]), 0.4 µM. For `Cc1nnc2n1-c1ccccc1C(c1ccc(Cl)cc1)=NC2NC(=O)c1cc2ccccc2[nH]1` (stereo not drawn) [compound 205], the IC50 was determined as 3.9 µM with IL-6 [1] (setting [5]) and 0.01 µM in the test with TNF-α (setting [6]).

The record behind these values is patent EP0934940A1, “CYTOKINE PRODUCTION INHIBITORS, TRIAZEPINE COMPOUNDS, AND INTERMEDIATES THEREOF” (Japan Tobacco Inc., priority 1996, dated 1997).
